Data: patent publication EP1925625A2, “Method for screening modulators of mitochondrial functionning and new modulators obtained” (Theraptosis S.A., priority 2002, dated 2008)

Experiments:
[1] = system: purified mouse liver mitochondria; test: Flow cytometric (real-time FCM) analysis of mitochondrial morphology (FSC/SSC) on isolated mitochondria; details: for changes of mitochondrial size (FSC) and structure (SSC): 1-30 µM Calcium, 20 µM CCCP or alamethicin added to isolated mitochondria; for effect on alamethicin induced MMP: pre-treatment with inhibitor, then alamethicin (5 µg/ml)
Procedure: (§1) Liver mitochondria were isolated from 3-4 weeks old Balb-c mice (IFFA CREDO, Saint Germain sur l'Arbresle, France). Animals were fasted overnight before being killed by […] dislocation. Liver mitochondria were prepared as described (Jacotot, 2000). All steps were carried out at 4°C. Finally, the organelles were resuspended in 'swelling buffer', composed by 200 mM sucrose, 5 mM succinate, 10 mM Tris-MOPS (pH 7.4), 1 mM H3PO4, 2 µM Rotenone, and 10 µM EGTA at pH=7.4. Spectrophotometric and flow cytometric analyses were performed in this buffer. The protein content of isolated mitochondria was determined by the Bradford assay.
Fluorescence-activated flow cytometry was performed using a 3-color FACSCalibur cytometer equipped with a 15 mW air-cooled 488 nm argon laser (Becton Dickinson, San Jose, CA). Mitochondria analyses were performed after appropriate settings of the Forward angle light scatter (FSC) - Side angle light scatter (SSC) detectors (see Fig. 1). Discrimination between mitochondria and cellular debris and noise background was performed by an appropriate gating on FSC-SSC scatter plots (Fig. 1)(Radcliff G, Jaroszeski MJ 1998 Methods Mol Biol 91:1-24 Basics of flow cytometry). Systematic confirmation of the validity of this gating was obtained by a labeling of mitochondria with the ΔΨm-insensitive mitochondrial dye MitoTracker® Green (MTG, Molecular Probes, Eugene, OR) (Jacotot et al., 2001). Briefly mitochondria (1.5 µg proteins) were respuspended in 400 µl swelling buffer containing 200 nM MTG for 15 min at room temperature. The organelles were immediately analyzed on the cytometer with the CellQuest Pro software (Becton Dickinson). MTG fluorescence was collected in the FL-1 channel (530 +/- 15 nm) and analyzed in logarithmic amplifier mode, using the PMT at a voltage adjusted to 907. Data from 20,000 gated mitochondria were recorded and analyzed.
Mitochondrial size was analyzed through the light scattered by the organelles at low angle using the Forward scatter (FSC) photodiode. Signals were collected using the E-00 setting, with a logarithmic amplification gain of 5.41. Mitochondrial structure was evaluated by the light scattered in the perpendicular direction. It was assessed by the sensitive Side scatter (SSC) photomultiplier tube (PMT), using a voltage of 581, and a linear amplification gain adjusted to 4.27. The morphological changes related to swelling of purified mitochondria were monitored by the increase in mitochondrial size (FSC) and the decrease in the organelle structure (SSC) using the CellQuest Pro software. The FSC/SSC ratio was calculated by the FCS Assistant software and permitted to integrate both variations in size and structure into only one parameter.
Fixed-time analyses were performed on mitochondrial samples containing 10 µg proteins in 100 µl of swelling buffer. Samples were submitted to MPP-inducing reagents for 30 min at 25°C. Samples were immediately analyzed by flow cytometry, and data from 20.000 mitochondria were recorded. The percentage of specific swelling determined on forward scatter was calculated as follows; (FSCCa2+ - FSCReagent ) x 100 / (FSCCa2+ - FSCCo), were FSCCa2+, FSCReagent and FSCCo correspond to the FSC values obtained for CaCl2- treated, reagent - treated and untreated mitochondria respectively. Similar calculation was used to determine the percentage of specific swelling on SSC and FSC/SSC ratio values.
Real-time experiments were performed on mitochondrial samples containing 1.5 µg proteins in 800 µl (= 2 ng / […]l) of swelling buffer. Samples were acquired on the flow cytometer for 5 minutes to record basal morphological criteria. Then reagents were added to samples, and variations in light scattering were recorded for the following 15 minutes. The sample flow rate was settled to 12 µl +/- 3 µl / min for both fixed- and real-time analyses. […]

[2] = system: purified mouse liver mitochondria; test: Flow cytometric analysis of mitochondrial transmembrane potential (JC-1) on isolated mitochondria; details: for changes of JC-1 fluorescence (ΔΨm): real-time, 20 µM mClCCP, 30 µM Ca2+ or alamethicin
Procedure: as §1
Mitochondrial transmembrane potential (ΔΨm) was assessed by 5,5',6,6',-tetracholoro-1,1,3,3'-tetraethylbenzimidazolyl carbocyanine iodide (JC-1, Molecular Probes) incorporation. This potential-sensitive cationic dye accumulates in the mitochondrial matrix according to the Nernst equation (Reers et al., 1991). JC-1 green fluorescence, associated with JC-1 monomers was collected in the FL-1 channel. JC-1 orange fluorescence, associated with the formation of J-aggregates was collected in the FL-2 channel (585 +/- 21 nm) (Reers et al, 1991). Both fluorescences were recorded in logarithmic amplifier mode, using the PMT at a voltage adjusted to 907 and 622 respectively. Spectral overlap was avoided by adjusting compensation network as follows: FL1 - 18.5% FL2 and FL2 - 25.4% FL1. The JC-1 orange green fluorescence ratio was calculated with the FCS Assistant software.
Fixed-time detection of ΔΨM was performed on mitochondrial samples containing 10 µg proteins in 100 µl of swelling buffer. Samples were submitted to MPT-inducing drugs for 15 min at 25°C, and JC-1 was added at 800 nM for 15 min at 37°C in the dark. Samples were immediately analyzed by flow cytometry, and data from 20.000 mitochondria (gated on FSC-SSC parameters) were recorded. This assay permitted to quantify the percentage of highly energized mitochondria (with both orange and green fluorescence) and depolarized mitochondria (with green fluorescence only) as depicted in part C2 of Fig.1.
Real-time monitoring of ΔΨm was performed on mitochondrial samples containing 1.5 µg proteins in 400 µl of swelling buffer. JC-1 loading was performed at 400 nM in for 15 minutes at 37°C. […] Then drugs were added to the sample, and ΔΨm variations were recorded for the following 16 minutes. Depolarization curves were drawn as previously indicated for swelling curves; the time scale was divided into discrete periods of 1 minute and the mean of JC-1 orange and JC-1 green fluorescence of the corresponding mitochondrial subsets was calculated by the CellQuest Pro software and exported into the Microsoft Excel software.

[3] = 50 µM BA or 10 µM CsA 5 minutes, then 30 min Ca2+ (30 µM)

Molecule	changes of mitochondrial size (FSC) and structure (SSC) [1]	changes of JC-1 fluorescence (ΔΨm) [2]	effect on alamethicin induced MMP [1]	effect on Ca2+ induced SSC decrease [1, 3]	effect on Ca2+ induced ΔΨm loss [2, 3]
N#CC(C#N)=NNc1cccc(Cl)c1 [CCCP, carbonyl cyanide meta-chlorophenylhydrazone]	low but significant granularity (SSC) decrease without detectable size (FSC) changes	rapid decrease in JC-1 orange fluorescence and a slow decrease in monomeric JC-1 green fluorescence			
[Ca+2].[Cl-].[Cl-] [Calcium, CaCl2]	dose-dependent SSC decrease and FSC increase	a decrease in JC-1 orange fluorescence and a significant increase in JC-1 green fluorescence			
N.N.N.N.N.N.N.N.N.N.N.N.N.N.[Cl-].[Cl-].[Cl-].[Cl-].[Cl-].[Cl-].[O-2].[O-2].[Ru+3].[Ru+3].[Ru+4] [Ruthenium red]			not affected		
CO[C@H](C/C=C\C=C\CC/C=C/C[C@H](C)/C=C/C(=C\C(=O)O)CC(=O)O)/C(C)=C\C=C(/C)C(=O)O [bongkrekic acid]			not affected	partly affect	strongly reduces
alamethicin	simultaneous FSC increase and SSC decrease	a decrease in JC-1 orange fluorescence and a significant increase in JC-1 green fluorescence			
